Results from patent US9629828B2, “Methods of treating traveler's diarrhea and hepatic encephalopathy” (priority 2008, dated 2017).

Assays:
[1] = test system: liver transplant patients who presented with HE; assay: Chart review of 39 liver transplant patients with HE; format: in vivo, human
patients with HE [2] = format: in vivo, human
From the text: Total number of hospitalizations, duration of hospitalizations, HE endpoints, and cost of therapy were compared between the 2 treatment regimens.

[3] = male, human, in vivo
patients with HE [4] = conditions: rifaximin 1200 mg/day, neomycin 3 g/day; cited from earlier work

OC[C@H]1O[C@@H](O[C@@H]2[C@@H](CO)OC(O)(CO)[C@H]2O)[C@H](O)[C@@H](O)[C@H]1O (mixture of isomers) [lactulose]
hospitalizations reported ([1]; 15 rifaximin, 24 lactulose patients): Nineteen | average length of stay ([1]; human, in vivo): 5.0 days | patients with Conn scores of 3 or 4 (patients with HE [2]; end of treatment period): 25% | days hospitalized (patients with HE [2]; human, in vivo): 7.3 days | patients with asterixis at end of treatment period (patients with HE [2]; human, in vivo): 93% | patients with diarrhea, flatulence, and abdominal pain (patients with HE [2]; human, in vivo): significantly more patients | hospitalizations (patients with HE [2]; rifaximin 400 mg 3 times/day, lactulose 30 mL twice daily): 1.6

CO[C@H]1/C=C/O[C@@]2(C)Oc3c(C)c(O)c4c(O)c(c5c(nc6cc(C)ccn65)c4c3C2=O)NC(=O)/C(C)=C\C=C\[C@H](C)[C@H](O)[C@@H](C)[C@@H](O)[C@@H](C)[C@H](OC(C)=O)[C@@H]1C [14C-Rifaximin]
amount of radioactivity in urine (bound) [3]: < 0.4 % of the dose

neomycin
efficacy in patients with HE (patients with HE [4]): comparable efficacy
